Results from patent US9029414B2, “Triterpenoid compounds and methods of use thereof” (Biotechnology Research Corporation, priority 2008, dated 2015).

How the values were obtained:
cortical neurons = assay: Cortical neuron survival assay against glutamate excitotoxicity (LDH); assay type: cell-based, Sprague-Dawley rats; settings: 30 μM 24 hrs, glutamate 10-200 μM 20 min; at high concentrations of glutamate
Experimental: Hippocampal neurons/cortical neurons were prepared from embryonic day 18 Sprague-Dawley rats. After the cortices had been removed from the brain, isolated cells were plated onto Poly d-Lysine (PDL) (P0899, Sigma)-coated 48 well plates (150687, NUNC) at a density of 2×10^5 cell per well using Neurobasal Medium (NB) (21103-049, Gibco) with B27 supplement (17504-044, Gibco), penicillin/streptomycin (15140, Gibco) and 1 mM L-glutamine (25030, Gibco). The cell culture was incubated at 37° C. in a humidified atmosphere of 5% CO2 in air. Medium was changed to growth medium (Neurobasal Medium with penicillin/streptomycin and B27 supplement) after 3 hours. Half medium was changed with growth medium every 2-3 days to maintain the cells until day 10 in vitro (DIV 10). Serial dilutions of samples were prepared in growth medium and DMSO was used as vehicle control. For pre-treating assay, half of the medium was removed from wells, and equal amount of diluted samples were replaced. Cells were then incubated for 2 hours at 37° C. in a humidified atmosphere of 5% CO2 in air. […] Afterwards, cells were incubated in growth medium for 18-24 hours and detected with Cytotoxicity Detection Kit (1644793, Roche).
Cortical neurons were pre-treated with DA021 or DA034 and subsequently subjected to varying concentrations of glutamate (10-200 μM). […] LDH release into the medium was then measured.

[1] = tested on: MOG-induced IL-6 in primary splenocytes; assay: IL-6 Quantikine ELISA in primary splenocytes of EAE mice; assay type: cell-based; settings: exogenous compound 30 μM; for amount of IL-6 in response to exogenous compound: splenocytes of compound-treated EAE mice (100 mg/kg); for reduction in the amount of MOG-induced IL-6: splenocytes of vehicle-treated EAE mice, MOG 25 μg/mL, 48 hrs
Experimental: On day 21, EAE mice were sacrificed by cervical dislocation and spleens were removed aseptically. The removed spleens were then cut with sterilized scissors and strained through […] mesh (BD Bioscience) with a plunger of 5 mL syringe (BD Bioscience) in 9 mL of RPMI 1640 (Invitrogen) with 100 U/mL penicillin and 100 μg/mL streptomycin (Sigma). The cell mixture was then added to 9 mL of Lympholyte (Cedarlane Laboratories) for gradient separation of splenocytes from red bloods cells by centrifugation at 1500 g for 20 min. After the centrifugation, the lympholyte layer containing splenocytes were carefully removed and washed with 10 mL of RPMI 1640 at 800 g for 10 min for three times. The isolated splenocytes were seeded onto different plate format and cultured with RPMI 1640 medium (Invitrogen) supplement with 10% heat inactivated fetal bovine serum (Invitrogen) and 100 U/mL penicillin and 100 μg/mL streptomycin at 37° C. CO2 incubator.
Splenocytes from EAE mice were cultured at the density of 1×10^6 cells in 12-well plates (Falcon) in the absence or presence of the MOG peptide (25 μg/mL) (Hooke Laboratories), DA001 and DA021 (30 μM) with RPMI 1640 medium (Invitrogen) supplement with 10% heat inactivated fetal bovine serum (Invitrogen) and 100 U/mL penicillin and 100 μg/mL streptomycin (Sigma) for 48 h. After 48 h, the supernatants were collected by pelleting the cells at 300 g for 10 min at 4° C. 50 μL of the each sample was added to the microtiter plate provided by the manufacturer of the Quantikine ELISA assay kit (R and D systems). Additional 50 μL of assay diluents buffer was added and incubated at room temperature for 2 h. After the incubation, the supernatants were discarded and the cells were washed with wash buffer. […] Subsequently, 100 μL of stop solution was added to each well and the plate was read in 450 nm wavelength on a microplate reader (Dynex Revelation 2.2).
(§1) Cells were cultured in RPMI 1640 medium supplement with 10% heat inactivated fetal bovine serum and penicillin/streptomycin, in the absence or presence of MOG (25 μg/mL, Ex) with or without DA001 or DA021 (30 μM, Ex). […] The amount of IL-6 was calculated based on the standard curve established during the assay. […]
as §1, with “DA001” for “DA001 or DA021”
as §1, with “without” for “without DA001 or”

| Structure (SMILES) | cell death (LDH release) vs DMSO control (cortical neurons) | amount of IL-6 in response to exogenous compound [1] | reduction in the amount of MOG-induced IL-6 [1] [%] |
| --- | --- | --- | --- |
| CC(=O)OC[C@]12CC[C@@H](C3(C)CO3)C1C1CCC3[C@@]4(C)CC[C@H](O)[C@@](C)(CO)[C@@H]4CC[C@@]3(C)[C@]1(C)CC2 (stereo partly drawn) [DA034] | significant reduction in cell death |  |  |
| C=C(C)[C@@H]1CC[C@]2(/C=N/O)CC[C@]3(C)C(CCC4[C@@]5(C)CCC(=O)[C@@](C)(CO)[C@@H]5CC[C@]43C)C12 (stereo partly drawn) [DA021] | significant reduction in cell death | markedly decreased | 79 |
| C=C(C)[C@@H]1CC[C@]2(C(=O)O)CC[C@]3(C)C(CC[C@@H]4[C@@]5(C)CC[C@H](O[C@@H]6OC[C@H](O)[C@H](O)[C@H]6O[C@@H]6O[C@@H](C)[C@H](O)[C@@H](O)[C@H]6O)[C@@](C)(CO)[C@@H]5CC[C@]43C)[C@@H]12 (stereo partly drawn) [DA001, 3-O-[α-L-rhamnopyranosyl-(1→2)-α-L-arabinopyranosyl]-3,23-dihydroxy-20(29)-lupen-28-oic acid] |  | markedly decreased | 73 |
